In patent US20020035061A1, “COMPOSITIONS AND METHODS FOR TREATING INFECTIONS USING CATIONIC PEPTIDES ALONE OR IN COMBINATION WITH ANTIBIOTICS” (priority 1996, published 2002):
Read-outs that look alike come from different tables or passages of the source.

Legend:
Assay type in all cases: cell-based
A. calcoaceticus = A. calcoaceticus AC002
E. coli = conditions: for Peptide MIC values: agarose dilution
K. pneumoniae = K. pneumoniae KP002
P. aeruginosa = conditions: for Peptide MIC values: agarose dilution
S. epidermidis = S. epidermidis SE002
S. pneumoniae = assay: Agarose dilution assay (MIC); conditions: for Peptide MIC values: agarose dilution
[1] = test system: various bacterial strains; assay: Broth dilution assay (MIC)
Procedure: Typically 100 μl of calcium and magnesium supplemented Mueller Hinton broth is dispensed into each well of a 96-well microtitre plate and 100 μl volumes of two-fold serial dilutions of the peptide are prepared across the plate. One row of wells receives no peptide and is used as a growth control. Each well is inoculated with approximately 5×10^5 CFU of bacteria and the plate is incubated at 35-37° C. for 16-20 hours.
For example, MIC values in μg/ml are established by broth dilution assay (Table 13) or by agarose dilution assay (Table 14) for a series of cationic peptides against various bacterial strains.

[2] = test system: inherently resistant microorganisms; assay: microbe, parasite or virus in culture; conditions: for FIC: peptide + Tobramycin
[3] = test system: microorganisms with acquired resistance; assay: microbe, parasite or virus in culture; conditions: S. aureus; combination with Mupirocin; in µg/mL
[4] = test system: vancomycin / teicoplanin resistant enterococci; assay: microbe, parasite or virus in culture; conditions: for Peptide MIC Alone: Vancomycin section; for FIC: peptide + Vancomycin

ILKKFPFFPFRRK [MBI 11A1CN]
MIC (A. calcoaceticus): 16 µg/mL | MIC (E. coli; E. coli ECO002): 32 µg/mL | Peptide MIC values (E. coli; E. coli ATCC 25922): 128 µg/mL | Peptide MIC values (E. coli; E. coli ESS): 16 µg/mL | Peptide MIC values (E. coli; E. coli NCTC 10418): 16 µg/mL | MIC (K. pneumoniae): >128 µg/mL | MIC (P. aeruginosa; P. aeruginosa PA004): >128 µg/mL | Peptide MIC values (P. aeruginosa; P. aeruginosa ATCC 27853): >128 µg/mL | Peptide MIC values (P. aeruginosa; P. aeruginosa NCTC 10662): >128 µg/mL | MIC (S. epidermidis): 16 µg/mL | MIC (S. pneumoniae; S. pneumoniae SBSPN2): >128 µg/mL | Peptide MIC values (S. pneumoniae; S. pneumoniae 406LE8): >128 µg/mL | Peptide MIC values (S. pneumoniae; S. pneumoniae 60120): >128 µg/mL | Peptide MIC values (S. pneumoniae; S. pneumoniae ATCC 49619): >128 µg/mL | MIC ([1]; A. calcoaceticus 8191): >256 µg/mL | MIC ([1]; E. cloacae 13047): >256 µg/mL | MIC ([1]; E. coli 25922): 512 µg/mL | MIC ([1]; E. coli DH1): 128 µg/mL | MIC ([1]; E. coli ECO003): >256 µg/mL | MIC ([1]; E. coli KL4): 256 µg/mL | MIC ([1]; E. faecalis 29212): >256 µg/mL | MIC ([1]; K. pneumoniae 13883): >256 µg/mL | MIC ([1]; K. pneumoniae B44): >256 µg/mL | MIC ([1]; P. aeruginosa 27853): >256 µg/mL | MIC ([1]; P. aeruginosa 8509041): >256 µg/mL | MIC ([1]; P. aeruginosa 9308077): >256 µg/mL | MIC ([1]; P. aeruginosa 9503024): >256 µg/mL | MIC ([1]; P. aeruginosa H650): >256 µg/mL | MIC ([1]; P. aeruginosa H652): >256 µg/mL | MIC ([1]; S. aureus 25923): 512 µg/mL | MIC ([1]; S. aureus 27217): >256 µg/mL | MIC ([1]; S. aureus 29213): 512 µg/mL | MIC ([1]; S. aureus 33593): >256 µg/mL | MIC ([1]; S. aureus 8402093): >256 µg/mL | MIC ([1]; S. aureus 8809014): >256 µg/mL | MIC ([1]; S. aureus 8809025): >256 µg/mL | MIC ([1]; S. epidermidis 14990): 512 µg/mL | MIC ([1]; S. maltophilia 13637): 256 µg/mL | MIC ([1]; S. maltophilia H361): 256 µg/mL | MIC ([1]; S. marcescens 13880): >256 µg/mL | MIC ([1]; S. marcescens B21): >256 µg/mL | Peptide MIC + Tobramycin ([2]; S. haemolyticus): 0.125 µg/mL | Peptide MIC Alone ([2]; S. haemolyticus, Tobramycin section): 16 µg/mL | FIC ([2]; S. aureus): 0.50 | FIC ([2]; S. haemolyticus): 0.51 | Peptide MIC [3]: 32 | Peptide MIC + Vancomycin ([4]; E. faecalis EFS003): 32 µg/mL | Vancomycin MIC + Peptide ([4]; E. faecalis EFS003): 4 µg/mL | Peptide MIC Alone ([4]; E. faecalis EFS003): >128 µg/mL | Peptide MIC + Vancomycin ([4]; E. faecalis EFS006): 0.25 µg/mL | Vancomycin MIC + Peptide ([4]; E. faecalis EFS006): 4 µg/mL | Peptide MIC Alone ([4]; E. faecalis EFS006): 128 µg/mL | Peptide MIC + Vancomycin ([4]; E. faecalis EFS010): 8 µg/mL | Vancomycin MIC + Peptide ([4]; E. faecalis EFS010): 1 µg/mL | Peptide MIC Alone ([4]; E. faecalis EFS010): 128 µg/mL | Peptide MIC + Vancomycin ([4]; E. faecalis EFS014): 2 µg/mL | Vancomycin MIC + Peptide ([4]; E. faecalis EFS014): 1 µg/mL | Peptide MIC Alone ([4]; E. faecalis EFS014): 4 µg/mL | Peptide MIC + Vancomycin ([4]; E. faecium EFM004): 16 µg/mL | Vancomycin MIC + Peptide ([4]; E. faecium EFM004): 0.5 µg/mL | Peptide MIC Alone ([4]; E. faecium EFM004): 32 µg/mL | Peptide MIC + Vancomycin ([4]; E. faecium EFM007): 16 µg/mL | Vancomycin MIC + Peptide ([4]; E. faecium EFM007): 4 µg/mL | Peptide MIC Alone ([4]; E. faecium EFM007): 64 µg/mL | Peptide MIC + Vancomycin ([4]; E. faecium EFM009): 8 µg/mL | Vancomycin MIC + Peptide ([4]; E. faecium EFM009): 4 µg/mL | Peptide MIC Alone ([4]; E. faecium EFM009): 64 µg/mL | FIC ([4]; E. faecalis EFS003): 0.63 | FIC ([4]; E. faecalis EFS006): 0.50 | FIC ([4]; E. faecalis EFS010): 0.13 | FIC ([4]; E. faecalis EFS014): 0.51 | FIC ([4]; E. faecium EFM004): 0.50 | FIC ([4]; E. faecium EFM007): 0.28 | FIC ([4]; E. faecium EFM009): 0.25
